Measurements from the supplement of paper PMC10307832.

Tests used:
Test in all cases: relative viability (nuclei count vs DMSO), 5 days (fraction); higher = more cells survive
[1] = compound: C1COCCN1C2=NC(=NC3=C2OC4=C3C=CC=N4)C5=CC(=CC=C5)NC(=O)C6=CN=C(C=C6)N + CCNC(=O)c1noc(-c2cc(C(C)C)c(O)cc2O)c1-c1ccc(CN2CCOCC2)cc1 [Luminespib] (partner 0.01 µM)
Outline: (§1)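 The day after seeding in 1536-well plates, lung cancer cell lines were treated by pin tool with a single drug, or with a fixed anchor-drug dose together with five library-drug doses (not always all listed) in √10 steps. After 5 days, a combined fix-and-stain solution (final 0.05% Triton X-100, 1% formaldehyde, 1 ug/ml Hoechst) was added. Nuclei counted on 4× images gave relative viability as treated counts over vehicle counts, reported as the median of duplicate plates.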

SGI-1776 + Lapatinib = compound: CN1CCC(CNc2ccc3ncc(-c4cccc(OC(F)(F)F)c4)n3n2)CC1 [SGI-1776] + CS(=O)(=O)CCNCc1ccc(-c2ccc3ncnc(Nc4ccc(OCc5cccc(F)c5)c(Cl)c4)c3c2)o1 [Lapatinib] (partner 2 µM)
Outline: as §1

[2] = compound: C1COCCN1C2=NC(=NC3=C2OC4=C3C=CC=N4)C5=CC(=CC=C5)NC(=O)C6=CN=C(C=C6)N + NC(=O)Nc1cc(-c2cccc(F)c2)sc1C(=O)N[C@H]1CCCNC1 [AZD7762] (partner 0.2 µM)
Outline: as §1

[3] = compound: C1COCCN1C2=NC(=NC3=C2OC4=C3C=CC=N4)C5=CC(=CC=C5)NC(=O)C6=CN=C(C=C6)N + C[C@@H](Oc1cc(-c2cnn(C3CCNCC3)c2)cnc1N)c1c(Cl)ccc(F)c1Cl [Crizotinib] (partner 1 µM)
Outline: as §1

Cell Line	relative viability ([1]; first compound 0.02 µM)	relative viability ([1]; first compound 0.06325 µM)	relative viability ([1]; first compound 0.2 µM)	relative viability ([1]; first compound 0.6325 µM)	relative viability ([1]; first compound 2 µM)	relative viability (SGI-1776 + Lapatinib; first compound 0.08 µM)	relative viability (SGI-1776 + Lapatinib; first compound 0.8 µM)	relative viability (SGI-1776 + Lapatinib; first compound 2.53 µM)	relative viability (SGI-1776 + Lapatinib; first compound 8 µM)	relative viability ([2]; first compound 0.02 µM)	relative viability ([2]; first compound 0.06325 µM)	relative viability ([2]; first compound 0.2 µM)	relative viability ([2]; first compound 0.6325 µM)	relative viability ([2]; first compound 2 µM)	relative viability ([3]; first compound 0.02 µM)	relative viability ([3]; first compound 0.06325 µM)	relative viability ([3]; first compound 0.2 µM)	relative viability ([3]; first compound 0.6325 µM)	relative viability ([3]; first compound 2 µM)
NCI-H1355	0.708	0.741	0.7	0.58	0.693	0.915	0.989	1.01	0.799	0.875	0.765	0.713	0.66	0.539	0.969	1.21	1.07	1.02	0.936
NCI-H322M	0.988	0.981	0.742	0.735	0.484	0.56	0.603	0.539	0.569	0.543	0.49	0.575	0.56	0.516	0.854	0.991	0.879	0.934	0.657
NCI-H1666	0.88	0.996	0.957	0.727	0.63	0.645	0.765	0.581	0.35	0.91	0.827	0.861	0.757	0.811	0.743	1.08	0.82	1.03	0.619
HARA	0.562	0.762	0.843	0.79	0.335	0.886	0.856	0.617	0.586	0.382	0.41	0.305	0.403	0.359	1.01	1.23	1.06	0.978	0.662
NCI-H1944	0.728	0.786	0.665	0.555	0.553	0.81	0.727	0.915	0.601	0.568	0.436	0.398	0.389	0.381	1.23	1.34	1.09	1.25	0.887
NCI-H2405	0.647	0.644	0.639	0.536	0.473	0.994	1.14	1.19	0.728	0.829	0.724	0.716	0.673	0.483	0.885	0.864	0.848	0.821	0.659
201T	1.13	1	1.05	0.985	0.827	1	0.981	1.02	0.942	0.655	0.626	0.603	0.509	0.534	1.02	1.05	1.03	1.01	0.736
PC-3 [JPC-3]	0.704	0.675	0.754	0.675	0.613	0.441	0.466	0.478	0.371	0.904	0.752		0.784	0.625	0.961	1.02	1.02	1.04	0.64
NCI-H1734	0.169	0.197	0.204	0.182	0.156	1.13	1.05	1.11	0.938	0.661	0.612	0.497	0.498	0.422	0.73	0.731	0.612	0.636	0.345
NCI-H1651	0.949	0.992	0.999	0.856	0.557	0.822	0.871	0.76	0.709	0.507	0.563	0.476	0.461	0.36	0.835	0.894	0.854	0.865	0.671
NCI-H838	0.338	0.279	0.264	0.303	0.227	0.96	1.22	0.942	0.564	0.95	0.967	0.999	0.827	0.755	0.901	0.809	0.674	0.722	0.439
NCI-H1915	0.95	0.85	0.829	0.432	0.267	0.981	0.95	0.972	0.949	0.72	0.767	0.716	0.726	0.664	0.887	1	0.983	0.907	0.494
HOP-62	0.882	0.983	0.833	0.863	0.44	1.19	0.954	1.16	0.928	0.732	0.494	0.434	0.633	0.291	1.08	1.14	0.714	0.695	0.65
NCI-H1975	0.157	0.148	0.202	0.29	0.3	0.922	0.928	0.899	0.838	0.72	0.67	0.608	0.557	0.51	0.993	1.15	0.929	1.07	0.418
BEN	0.479	0.312	0.313	0.328	0.42	0.695	0.739	0.705	0.532	0.726	0.636	0.66	0.621	0.657	0.928	0.841	0.932	0.821	0.504
EMC-BAC-2	1.25	1.32	1.08	1.03	0.648	0.912	0.902	0.836	0.849	1.2	1.11	1.14	1.01	1.01	0.8	0.792	0.76	0.805	0.598
